{"source": "paper PMC11257039", "about": "“VCP activator reverses nuclear proteostasis defects and enhances TDP-43 aggregate clearance in multisystem proteinopathy models” (The Journal of Clinical Investigation, 2024)", "key": {"recombinant WT VCP [1]": {"molecular_target": "T1, recombinant WT VCP (Mus musculus, UniProt Q01853)", "T1 construct": "in the full-length recombinant VCP; His (N); made in house; host or cells: Escherichia coli BL21-CodonPlus (DE3)-RIL", "test": "Kinase-Glo ATPase assay, recombinant WT VCP", "format": "biochemical", "conditions": "for ATP consumed: WT VCP no UN", "summary_of_the_method": "(§1)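 Mouse VCP (50 nM), alone or with 50 nM UFD1/NPLOC4, was incubated 1 h at 25 °C with 62.5 μM ATP and a range of compound concentrations in HEPES pH 7.5, 100 mM NaCl, 10 mM MgCl2, 2% DMSO. Remaining ATP was read by Kinase-Glo luminescence. Dose data were fit to a 3-parameter curve; ATP-varied data were fit to Michaelis-Menten.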"}, "WT VCP + Ufd1/Nploc4": {"molecular_target": "T2, WT VCP + Ufd1/Nploc4 (Mus musculus, UniProt Q01853)", "T2 construct": "in the full-length recombinant VCP; His (N); made in house; host or cells: E. coli (VCP: BL21-CodonPlus (DE3)-RIL; UFD1 and NPLOC4: E. coli (DE3), purified by the MD Anderson core)", "test": "Kinase-Glo ATPase assay, WT VCP with UFD1/NPLOC4 (UN)", "format": "biochemical", "conditions": "for ATP consumed: WT VCP with UN", "summary_of_the_method": "as §1"}, "recombinant WT VCP [2]": {"molecular_target": "T1, recombinant WT VCP", "test": "MESG-PNP (EnzCheck) phosphate release ATPase assay, WT VCP", "format": "biochemical", "conditions": "for ATPase activity v0/ET: 25 μM compound, replicate experiments", "summary_of_the_method": "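50 nM mouse WT VCP with 25 μM compound, 2% DMSO and varied ATP at 25°C; phosphate release followed by MESG-PNP absorbance at 360 nm for over 15 min against a phosphate standard curve. Initial rates from the linear portion, fitted to a 3-parameter dose curve or to Michaelis-Menten.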"}, "[3]": {"system": "WT HeLa cells expressing GFP-TDP-4FL", "test": "Flow cytometry of GFP-TDP-4FL integrated fluorescence, WT HeLa", "format": "cell-based", "conditions": "for Integrated Fluorescence WT (Normalized to CHX): replicate values", "summary_of_the_method": "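Trypsinised cells resuspended in colorless DMEM with 2% FBS and analysed by flow cytometry. Integrated fluorescence taken as percent GFP-positive cells multiplied by GFP median fluorescence.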"}, "[4]": {"system": "WT HeLa cells expressing TDP-4FL", "test": "Immunofluorescence of TDP-4FL inclusion morphology, WT HeLa", "format": "cell-based", "conditions": "MG132 17 h, then CHX with 5 μM UP109 4 h", "method": "HeLa Cells were plated onto glass coverslips and transfected with TDP-4FL using Fugene HD for 24 hours. Cells were fixed with 4% paraformaldehyde (Electron Microscopy Sciences), permeabilized with 0.1% Triton-X (Thermo Fisher Scientific), and blocked with 2% FBS DPBS. Primary antibodies were diluted in 2% FBS DPBS. Cells were stained with 300 nM DAPI, and coverslips were mounted onto glass slides using ProLong Glass Antifade Mountant (Thermo Fisher Scientific). Confocal images were obtained using a Leica TCS SPE laser scanning confocal microscope.\n(A) High power magnification immunofluorescence confocal images of HeLa cells expressing TDP-4FL stained for myc-TDP (green) Scale bar, 5 µm. […]\n(C) Representative confocal microscopy immunofluorescence confocal images of HeLa cells […]\nyellow represent cells that were categorized as anisosome morphology. Nuclei outline in white represent cells that were categorized as aggregate morphology. Cells with approximately more than 50% anisosome inclusions were categorized as anisosome morphology whereas cells with approximately more than 50% aggregate-like inclusions were categorized as aggregate morphology. Binucleate cells were excluded from the total counts. Scale bar, 10 µm.\n(1 picture or pasted object on this page, not shown here)"}, "R155H VCP": {"molecular_target": "T3, R155H VCP (Mus musculus, UniProt Q01853, R155H)", "T3 construct": "in the full-length recombinant VCP; His (N); made in house; host or cells: Escherichia coli BL21-CodonPlus (DE3)-RIL", "T3 sequence (Q01853 whole entry R155H)": "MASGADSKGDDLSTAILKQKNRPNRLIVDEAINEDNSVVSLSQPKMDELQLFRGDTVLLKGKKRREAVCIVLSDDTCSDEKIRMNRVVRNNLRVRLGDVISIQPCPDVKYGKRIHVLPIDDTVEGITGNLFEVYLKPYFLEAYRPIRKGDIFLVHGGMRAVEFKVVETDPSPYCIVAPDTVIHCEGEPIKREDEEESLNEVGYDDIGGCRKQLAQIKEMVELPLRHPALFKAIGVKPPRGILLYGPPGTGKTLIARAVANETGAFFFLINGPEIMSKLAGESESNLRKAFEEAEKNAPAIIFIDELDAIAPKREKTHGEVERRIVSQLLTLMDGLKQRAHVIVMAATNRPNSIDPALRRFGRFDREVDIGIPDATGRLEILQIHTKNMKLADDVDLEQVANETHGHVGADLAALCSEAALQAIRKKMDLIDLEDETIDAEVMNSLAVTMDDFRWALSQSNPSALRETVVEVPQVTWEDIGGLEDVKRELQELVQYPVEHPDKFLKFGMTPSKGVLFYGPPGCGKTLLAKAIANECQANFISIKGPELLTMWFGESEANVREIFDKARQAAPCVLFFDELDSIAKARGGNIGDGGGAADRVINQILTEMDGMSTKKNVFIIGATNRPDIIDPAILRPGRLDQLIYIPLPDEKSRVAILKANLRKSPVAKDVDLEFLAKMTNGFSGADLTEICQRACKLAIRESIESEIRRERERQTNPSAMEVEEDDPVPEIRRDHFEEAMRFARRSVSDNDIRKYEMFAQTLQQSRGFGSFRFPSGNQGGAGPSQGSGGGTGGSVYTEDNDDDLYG", "test": "MESG-PNP ATPase assay, recombinant R155H VCP", "format": "biochemical", "summary_of_the_method": "(§2)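 Phosphate release (MESG-PNP, A360) from 50 nM recombinant mouse VCP mutant, with 25 μM compound versus 2% DMSO, at 1mM ATP. Read >15 min at 25°C, quantified against a phosphate standard curve; initial velocity from linear fit of the linear portion.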"}, "R159H VCP": {"molecular_target": "T4, R159H VCP (Mus musculus, UniProt Q01853, R159H)", "T4 construct": "in the full-length recombinant VCP; His (N); made in house; host or cells: Escherichia coli BL21-CodonPlus (DE3)-RIL", "T4 sequence (Q01853 whole entry R159H)": "as the sequence (Q01853 whole entry R155H) above, with H155R, R159H counted along it", "test": "MESG-PNP ATPase assay, recombinant R159H VCP", "format": "biochemical", "summary_of_the_method": "as §2"}, "[5]": {"conditions": "25 μM compound, 1 mM ATP, 50 nM VCP"}}, "note": "“And” between values parts separate entries of the source, which are not always exact repeats. Equal entries are not always repeated."}
{"smiles": "COCCNC(=O)NC(=O)COC(=O)c1cc([N+](=O)[O-])ccc1Sc1nc(C)cs1", "note": "[UP109]", "values": [{"measurement": "EC50", "setting": "recombinant WT VCP [1]; EC50 (μM) (95% CI), WT VCP without UN, 50 nM VCP, 62.5 μM ATP, 2% DMSO", "result": 24.7, "unit": "µM"}, {"measurement": "ATP consumed", "setting": "recombinant WT VCP [1]; 1.56 μM compound", "result": "0.864 nmol and 1.057 nmol and 1.000 nmol"}, {"measurement": "ATP consumed", "setting": "recombinant WT VCP [1]; 3.13 μM compound", "result": "1.129 nmol and 1.166 nmol and 1.237 nmol"}, {"measurement": "ATP consumed", "setting": "recombinant WT VCP [1]; 6.25 μM compound", "result": "1.129 nmol and 1.374 nmol and 1.469 nmol"}, {"measurement": "ATP consumed", "setting": "recombinant WT VCP [1]; 12.5 μM compound", "result": "1.453 nmol and 1.583 nmol and 1.518 nmol"}, {"measurement": "ATP consumed", "setting": "recombinant WT VCP [1]; 25 μM compound", "result": "1.644 nmol and 1.860 nmol and 1.582 nmol"}, {"measurement": "ATP consumed", "setting": "recombinant WT VCP [1]; 50 μM compound", "result": "1.793 nmol and 1.914 nmol and 2.036 nmol"}, {"measurement": "ATP consumed", "setting": "recombinant WT VCP [1]; 100 μM compound", "result": "1.926 nmol and 2.030 nmol and 2.160 nmol"}, {"measurement": "ATP consumed", "setting": "recombinant WT VCP [1]; 200 μM compound", "result": "2.051 nmol and 2.217 nmol and 2.241 nmol"}, {"measurement": "recombinant WT VCP ATPase activity", "setting": "recombinant WT VCP [1]; in vitro validation of 106 screen hits", "result": "significantly increased"}, {"measurement": "increase of VCP activity", "setting": "recombinant WT VCP [1]; maximum, WT VCP without UN", "result": 97, "unit": "%"}, {"measurement": "change in EC50 with UN compared to without UN", "setting": "WT VCP + Ufd1/Nploc4", "result": "non-significant decreases"}, {"measurement": "change in maximum percent activity with UN compared to without UN", "setting": "WT VCP + Ufd1/Nploc4", "result": "significantly decreased"}, {"measurement": "EC50", "setting": "WT VCP + Ufd1/Nploc4; WT VCP + Ufd1/Nploc4, 1:1 molar ratio", "result": 13.4, "unit": "µM"}, {"measurement": "ATP consumed", "setting": "WT VCP + Ufd1/Nploc4; 1.56 μM compound", "result": "1.207 nmol and 1.374 nmol and 1.037 nmol"}, {"measurement": "ATP consumed", "setting": "WT VCP + Ufd1/Nploc4; 3.13 μM compound", "result": "1.252 nmol and 1.505 nmol and 1.198 nmol"}, {"measurement": "ATP consumed", "setting": "WT VCP + Ufd1/Nploc4; 6.25 μM compound", "result": "1.448 nmol and 1.727 nmol and 1.392 nmol"}, {"measurement": "ATP consumed", "setting": "WT VCP + Ufd1/Nploc4; 12.5 μM compound", "result": "1.655 nmol and 1.932 nmol and 1.557 nmol"}, {"measurement": "ATP consumed", "setting": "WT VCP + Ufd1/Nploc4; 25 μM compound", "result": "1.893 nmol and 2.050 nmol and 1.818 nmol"}, {"measurement": "ATP consumed", "setting": "WT VCP + Ufd1/Nploc4; 50 μM compound", "result": "2.078 nmol and 2.217 nmol and 1.927 nmol"}, {"measurement": "ATP consumed", "setting": "WT VCP + Ufd1/Nploc4; 100 μM compound", "result": "2.107 nmol and 2.355 nmol and 2.018 nmol"}, {"measurement": "ATP consumed", "setting": "WT VCP + Ufd1/Nploc4; 200 μM compound", "result": "1.978 nmol and 2.301 nmol and 2.081 nmol"}, {"measurement": "decrease in KM compared with DMSO", "setting": "recombinant WT VCP [2]; 25 μM activator", "result": "more than 2 fold"}, {"measurement": "kcat (nmol Pi / nmol VCP / s) (95% CI)", "setting": "recombinant WT VCP [2]; 25 μM activator", "result": "0.489 (0.459, 0.520) nmol Pi / nmol VCP / s"}, {"measurement": "increase in catalytic efficiency (kcat/KM)", "setting": "recombinant WT VCP [2]; 25 μM activator, versus DMSO", "result": "> 4", "unit": "fold"}, {"measurement": "increase in kcat", "setting": "recombinant WT VCP [2]; 25 μM activator, versus DMSO", "result": 100, "unit": "%"}, {"measurement": "ATPase activity v0/ET", "setting": "recombinant WT VCP [2]; [ATP] 62.5 μM", "result": "0.302 nmol Pi / nmol VCP / s and 0.325 nmol Pi / nmol VCP / s and 0.308 nmol Pi / nmol VCP / s"}, {"measurement": "ATPase activity v0/ET", "setting": "recombinant WT VCP [2]; [ATP] 125 μM", "result": "0.374 nmol Pi / nmol VCP / s and 0.402 nmol Pi / nmol VCP / s and 0.380 nmol Pi / nmol VCP / s"}, {"measurement": "ATPase activity v0/ET", "setting": "recombinant WT VCP [2]; [ATP] 250 μM", "result": "0.403 nmol Pi / nmol VCP / s and 0.414 nmol Pi / nmol VCP / s and 0.420 nmol Pi / nmol VCP / s"}, {"measurement": "ATPase activity v0/ET", "setting": "recombinant WT VCP [2]; [ATP] 500 μM", "result": "0.423 nmol Pi / nmol VCP / s and 0.468 nmol Pi / nmol VCP / s and 0.467 nmol Pi / nmol VCP / s"}, {"measurement": "ATPase activity v0/ET", "setting": "recombinant WT VCP [2]; [ATP] 1000 μM", "result": "0.455 nmol Pi / nmol VCP / s and 0.493 nmol Pi / nmol VCP / s and 0.498 nmol Pi / nmol VCP / s"}, {"measurement": "Integrated Fluorescence WT (Normalized to CHX)", "setting": "[3]; 5μM compound with CHX", "result": "1.011 and 0.958 and 1.026 and 0.960 and 0.926 and 0.822 and 0.883 and 0.671"}, {"measurement": "Integrated Fluorescence WT (Normalized to CHX)", "setting": "[3]; 20μM compound with CHX", "result": "0.950 and 0.938 and 0.974 and 0.870 and 0.844 and 0.840 and 0.850 and 0.749"}, {"measurement": "clearance of GFP-TDP-4FL aggregates (integrated fluorescence)", "setting": "[3]; MG132, then CHX with 5 or 20 μM activator", "result": "enhances clearance of TDP-4FL inclusions"}, {"measurement": "TDP-4FL aggregate morphology", "setting": "[4]", "result": "appeared to be smaller and in some cases revert to small anisosomes"}, {"measurement": "ATPase activity of R155H VCP", "setting": "R155H VCP; [5]", "result": "increases ATPase activity"}, {"measurement": "ATPase activity, nmol Pi / nmol VCP / s", "setting": "R155H VCP; VCP Mutation R155H, replicate values", "result": "1.058 nmol Pi / nmol VCP / s and 1.110 nmol Pi / nmol VCP / s and 1.179 nmol Pi / nmol VCP / s"}, {"measurement": "ATPase activity of R159H VCP", "setting": "R159H VCP; [5]", "result": "increases ATPase activity"}, {"measurement": "ATPase activity, nmol Pi / nmol VCP / s", "setting": "R159H VCP; VCP Mutation R159H, replicate values", "result": "1.124 nmol Pi / nmol VCP / s and 1.212 nmol Pi / nmol VCP / s and 1.056 nmol Pi / nmol VCP / s"}]}
